Laboratory results published in article PMC9977316, “The kidney drug transporter OAT1 regulates gut microbiome–dependent host metabolism” (JCI Insight, 2023).
“Also recorded” adds a separate entry of the source. Read-outs that look alike come from different tables or passages of the source.

How the values were obtained:
OAT1 [1] = target: T1, OAT1 (Homo sapiens, UniProt Q4U2R8); assay: In vitro OAT1 transport assay (inhibition of 6-carboxyfluorescein uptake); format: cell-based; set-up: host or cells: HEK (HEK293) cells stably overexpressing human OAT1; conditions: for In vitro cell–based transport assay: this work
T1 sequence (Q4U2R8 1-563): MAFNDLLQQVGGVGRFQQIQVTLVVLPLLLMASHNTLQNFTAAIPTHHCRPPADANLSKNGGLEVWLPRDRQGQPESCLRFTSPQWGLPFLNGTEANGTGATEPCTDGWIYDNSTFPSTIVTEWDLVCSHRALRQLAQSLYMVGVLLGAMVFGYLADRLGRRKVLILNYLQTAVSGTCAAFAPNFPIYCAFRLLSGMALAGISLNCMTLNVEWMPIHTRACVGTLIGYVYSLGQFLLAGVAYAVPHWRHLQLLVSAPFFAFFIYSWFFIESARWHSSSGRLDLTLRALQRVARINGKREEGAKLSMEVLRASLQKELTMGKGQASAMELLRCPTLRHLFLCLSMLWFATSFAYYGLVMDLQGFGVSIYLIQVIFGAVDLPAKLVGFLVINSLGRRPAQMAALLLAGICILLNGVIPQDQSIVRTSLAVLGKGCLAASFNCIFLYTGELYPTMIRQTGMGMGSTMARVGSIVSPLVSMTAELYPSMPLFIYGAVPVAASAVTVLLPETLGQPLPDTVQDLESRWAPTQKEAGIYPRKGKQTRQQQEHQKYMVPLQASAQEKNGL
Method: Human embryonic kidney (HEK) cells stably overexpressing human OAT1 (SOLVO Biotechnology) were used for in vitro inhibition assays. […] Prior to functional assays, cells were plated in 96-well plates and grown for 24 hours or until confluent in media without blasticidin. Metabolites were added at either 1 mM or 2 mM, and serial dilution was performed down all columns. A fixed concentration of 10 μM 6-carboxyfluorescein (6-CF) was introduced to each well for 10 minutes. Cells were rinsed 3 times in ice-cold PBS, and the fluorescence was measured using a fluorescence plate reader. IC50 values were calculated using GraphPad Prism 9. Controls were carried out using probenecid, an established inhibitor of OAT1 function.

OAT1 [2] = target: T2, OAT1 (Mus musculus, UniProt Q8VC69); assay: Serum metabolomics, effect of genotype (Oat1-KO versus WT), 2-way ANOVA; format: in vivo
T2 construct: from tissue; host or cells: living mice (kidney proximal tubule); Oat1-KO versus WT
T2 sequence (Q8VC69 1-545): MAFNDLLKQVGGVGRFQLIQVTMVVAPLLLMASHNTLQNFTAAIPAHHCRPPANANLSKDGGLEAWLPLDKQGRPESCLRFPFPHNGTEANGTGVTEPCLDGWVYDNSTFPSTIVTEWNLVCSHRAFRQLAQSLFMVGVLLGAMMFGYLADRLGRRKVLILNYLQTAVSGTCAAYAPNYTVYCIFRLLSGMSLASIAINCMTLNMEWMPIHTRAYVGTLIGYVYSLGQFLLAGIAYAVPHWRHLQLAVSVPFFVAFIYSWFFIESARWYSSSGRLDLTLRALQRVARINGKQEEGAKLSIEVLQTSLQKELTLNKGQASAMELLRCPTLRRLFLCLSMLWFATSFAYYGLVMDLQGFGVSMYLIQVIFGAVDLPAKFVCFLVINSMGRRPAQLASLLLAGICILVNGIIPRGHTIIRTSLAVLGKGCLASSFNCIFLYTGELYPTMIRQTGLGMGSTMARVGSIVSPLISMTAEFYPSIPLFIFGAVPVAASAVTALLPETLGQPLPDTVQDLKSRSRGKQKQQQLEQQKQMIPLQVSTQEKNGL
Method: Adult male KO and WT mice were housed in a 12-hour light-dark cycle and allowed ad libitum access to food and water. Oat1-KO mice were generated and maintained as previously described ([49]). Feces were collected from mice weekly in sterile 2 mL centrifuge tubes, flash frozen, and stored at –80°C. Animals were sacrificed by CO2 inhalation, and blood samples were extracted from mice by cardiac puncture. Serum was extracted, and samples were flash frozen and stored at –80°C until further analysis.
Serum samples were shipped on dry ice to Metabolon Inc. for preparation and metabolomics. Per Metabolon Inc., proteins were removed from the serum and 5 fractions were generated for different mass spectrometry methods. […] Peaks were identified and associated with defined compounds based on retention time, mass/charge ratio, and MS/MS spectral data. Quantification of peaks was performed using AUC.
Scaled intensity for each metabolite was normalized to volume, and missing values were imputed with the lowest value for the compound. For all fold-change calculations, scaled intensities were averaged and compared with each other. Statistical comparisons were performed using the Python module, statsmodels (https://www.statsmodels.org/stable/index.html) and were made between groups by 2-way ANOVA following log transformation and FDR correction, with P < 0.05 being considered significant. Enrichment for each superpathway and subpathway was calculated using the number of total metabolites measured and the number of metabolites in each respective superpathway and subpathway, as previously described ([16]).

OAT1 [3] = target: T1, OAT1; set-up: The full-length protein was expressed as GFP fusion in HEK293 cells to check for protein expression; GFP; FLAG (inferred from capture on anti-flag antibody beads); made in house; host or cells: HEK293 cells, third-generation lentiviral vector; conditions: cited from earlier work
OAT1 [4] = target: T2, OAT1; assay: Tc-99m MAG3 imaging and postmortem γ counts in Oat1-KO and WT mice; format: in vivo; conditions: WT vs Oat1-KO
Method: Live-imaging experiments were performed with the In Vivo Imaging Shared Resource at the Moore’s Cancer Center at the UCSD. Mice were transported from the vivarium to the In Vivo Imaging Shared Resource. In total, 100 μCi of Tc-99m MAG3 was injected by tail vein into mice prior to imaging. Adult, male KO (n = 5) and WT mice (n = 5) were imaged in 5 separate pairs containing 1 KO mouse and 1 WT mouse each. Mice were initially weighed and anesthetized (2% isoflurane, 200 mL/min flow of O2). Mice were placed on their backs on the high-resolution γ imager (γ imager; BioSpace) fitted with a high-resolution, low-energy collimator. For 30 minutes, time-activity curves were collected from the kidneys, liver, and bladder. Following imaging, blood, urine, kidneys, liver, and spleen were isolated and weighed from each mouse for radioactive assessment using a γ counter.

C[C@H](CCC(=O)O)[C@H]1CC[C@H]2[C@@H]3CC[C@@H]4C[C@H](O)CC[C@]4(C)[C@H]3C[C@H](O)[C@]12C [deoxycholate]
IC50 (OAT1 [1]): 19.2 µM
In vitro cell–based transport assay (OAT1 [1]): × (this work)
interaction between genotype and treatment on serum level (OAT1 [2]; 2-way ANOVA, loss of Oat1 x microbiome depletion): impacted by the interaction between the variables; also recorded: affected by genotype-treatment interaction
Status (OAT1 [2]; direction of serum change by loss of Oat1 and by microbiome depletion): Group 2

NCCc1c[nH]c2ccc(O)cc12 [Serotonin]
In vitro cell–based transport assay (OAT1 [3]): × (17)

Tc-99m mercaptoacetyl-triglycine [Tc-99m MAG3]
bladder levels, postmortem γ counts scaled to weight (OAT1 [4]; 4 of 5 pairs): higher in the WT mice
blood levels, postmortem γ counts scaled to weight (OAT1 [4]; 4 of 5 pairs): higher in the KO mice
time to maximal bladder levels (OAT1 [4]; tail-vein injection, 30 minutes, γ camera): WT bladders reached their maximal levels of Tc-99m MAG3 more quickly than the Oat1-KO mice

O=C(O)Cc1ccccc1O [2-hydroxyphenylacetate]
IC50 (OAT1 [1]): 39.2 µM
In vitro cell–based transport assay (OAT1 [1]): × (this work)
effect of genotype on serum level (OAT1 [2]; statistical analysis of the serum metabolome): affected by genotype
